# Experimental data as given in paper PMC12064818, “A general assay platform to study protein pharmacology using ligand-dependent structural dynamics” (Nature Communications, 2025).
# “And” between values parts separate entries of the source, which are not always exact repeats. Equal entries are not always repeated.
# Experiments:
# [1] = biological target: FLuc-C-NLuc (firefly luciferase) (Photinus pyralis, UniProt P08659, form not given/L550V); assay: Firefly luciferase (FLuc) enzymatic luminescence assay, FLuc-C-NLuc; assay type: biochemical; design: key to Enz: % normalized; no enzyme control = 100% inhibition, DMSO = 0; details: for Enz: Log[Compound]
# Method: The enzyme activity of FLuc-N-HiBiT, FLuc-C-HiBiT, and FLuc-C-NLuc was measured similar to P. pyralis firefly luciferase (FLuc) as previously described. […] Compounds and controls were added to each plate as described in Supplementary Data 8 with a Hornet pintool system (Wako Automation). Compounds were incubated with respective enzymes for 30–60 min at room temperature protected from light and covered by solid metal lid to prevent evaporation. […] Luciferin was incubated with FLuc enzyme for 5 min before FLuc activity was then measured on a ViewLux CCD imager (PerkinElmer), with exposure times up to ten seconds with medium to high gain settings. Data were normalized to average no enzyme control as 100% enzyme inhibition and average DMSO neutral control. See Supplementary Table 4 for additional details.
# Supplementary Table 4. Protocol for Firefly luciferase (FLuc) and NanoLuc (NLuc) enzymatic
# Supplementary Table 4: Protocol for Firefly luciferase (FLuc) and NanoLuc (NLuc) enzym atic lum inescence assay
# Firefly luciferase (FLuc) enzym atic lum inescence assay
# Sequence Param eter Value Description
# No enzym e control (colum n 1) and enzym e solution (1- 10 nM FLuc enzym e) in FLuc assay
# 1 Reagent 4 µLbuffer; white/solid bottom , m edium bind, high base plates (Greiner), dispensed with BioRaptr
# com pounds transferred to respective colum ns with Pintool
# 2b Test Com pounds 23 nLconcentration range) in colum ns 5- 48; com pounds transferred to respective wells with
# 3 Incubation 30 m in Incubate enzym e + com pounds at am bient tem p for 30 m in, protected from light
# 4 Reagent 3 µLAdd 3 µL of D-luciferin substrate solution to each well (final concentration 10 µM); dispensed
# 5 Detector ViewLux Read plate lum inescence (Exposure = 1- 10 sec; Gain = Medium -high; Speed = Slow;
# Dispensing solution was diluted in 1X PBS, pH 7.4. […]
# [2] = biological target: firefly luciferase (FLuc) (Photinus pyralis, UniProt P08659); assay: Thermal shift profiles (Thermofluor assay), FLuc; assay type: binding; design: unit of the concentration uncertain; details: 52.782 °C; compound 100 (unit uncertain);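 further: normalized first derivative of fluorescence (dF/dT) at the stated temperature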
# Method: Thermal stabilization of proteins in the presence of the ligands were determined using Thermofluor technique. MicroAmp optical 384-well plates (Applied Biosystems by Life Technologies), ViiA 7 real-time PCR instrument (Applied Biosystems by Life Technologies) and SYPRO Orange (Life Technologies) were used to test the samples. The final concentration of the protein, compounds and dye were maintained at 5 µM, 100 µM and 10x respectively in a 20 µL reaction volume. […] Proteins were added to the 384-well plate first followed by the compounds. Samples were incubated for 10 mins at room temperature and protected from light. […] The plate was sealed with a MicroAmp optical adhesive film, centrifuged at 1500 RPM for 2 min, and then loaded onto the ViiA 7 real–time PCR instrument for fluorescence intensity measurements upon heating the sample from 25 to 95 °C at 1 °C/min increments. Data was exported to excel, fluorescence intensity data and its first derivative were normalized and plotted using GraphPad Prism to determine Tm. […]
# 6 Read ViiA7 Read the therm al unfolding of the protein with ViiA7 real-tim e PCR system
# 4 Prepare 50X dye in PBS: 1 μL Sypro Orange 5000X (Life Technologies), 99 μL ddH2O. Add 4 μL to each well Read the m elting tem perature from 25 to 95 °C using ViiA 7 real tim e PCR instrum ent by following the below instructions Perform therm al denaturation in 384-well assay plate […]
# [3] = FLuc-C-NLuc (1 nM) + 10 mM ATP, 32.8 µM ligand
# Sequence of FLuc-C-NLuc (firefly luciferase) (P08659 2-550 L550V, form open): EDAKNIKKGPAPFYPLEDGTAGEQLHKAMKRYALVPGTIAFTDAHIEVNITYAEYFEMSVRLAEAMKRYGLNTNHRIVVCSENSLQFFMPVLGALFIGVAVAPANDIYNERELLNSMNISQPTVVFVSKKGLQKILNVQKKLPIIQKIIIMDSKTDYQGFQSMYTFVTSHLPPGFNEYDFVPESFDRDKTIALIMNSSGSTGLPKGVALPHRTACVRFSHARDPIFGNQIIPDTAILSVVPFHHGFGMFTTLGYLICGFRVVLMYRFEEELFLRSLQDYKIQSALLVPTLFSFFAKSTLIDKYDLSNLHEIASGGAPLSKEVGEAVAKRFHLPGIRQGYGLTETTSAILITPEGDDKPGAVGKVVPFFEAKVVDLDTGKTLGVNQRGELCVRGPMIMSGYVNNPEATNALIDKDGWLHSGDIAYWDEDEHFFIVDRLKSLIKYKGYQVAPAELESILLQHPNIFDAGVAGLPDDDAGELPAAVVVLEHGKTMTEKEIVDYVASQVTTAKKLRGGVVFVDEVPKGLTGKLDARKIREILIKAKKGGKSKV
# Sequence of firefly luciferase (FLuc) (P08659 whole entry): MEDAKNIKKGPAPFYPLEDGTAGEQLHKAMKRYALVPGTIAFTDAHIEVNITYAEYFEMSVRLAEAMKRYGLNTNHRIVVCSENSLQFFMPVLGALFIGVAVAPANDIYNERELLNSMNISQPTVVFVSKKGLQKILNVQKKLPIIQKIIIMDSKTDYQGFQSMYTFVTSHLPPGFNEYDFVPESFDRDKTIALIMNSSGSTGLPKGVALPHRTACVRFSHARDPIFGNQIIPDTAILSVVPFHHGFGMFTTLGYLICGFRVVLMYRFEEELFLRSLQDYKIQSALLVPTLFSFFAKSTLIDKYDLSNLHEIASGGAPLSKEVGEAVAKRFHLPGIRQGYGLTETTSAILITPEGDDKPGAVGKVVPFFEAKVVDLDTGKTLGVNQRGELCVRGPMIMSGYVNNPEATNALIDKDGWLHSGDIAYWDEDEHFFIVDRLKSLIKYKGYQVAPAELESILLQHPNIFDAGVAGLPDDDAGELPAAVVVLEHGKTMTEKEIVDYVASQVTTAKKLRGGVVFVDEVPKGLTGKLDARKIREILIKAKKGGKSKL
smiles,measurement,setting,value
"O=C(O)c1cccc(-c2noc(-c3ccccc3F)n2)c1 [PTC124, reference compound]",Functional Enzymatic Assay,"[1]; 1 nM FLuc-C-NLuc, Log [PTC124], M -6.87, replicates",5.5 RLU and 5.8 RLU and 4.9 RLU and 5.4 RLU
same,"pIC50, FLuc-C-NLuc (1 nM)",[1]; 10 μM ATP,9.85 ± 0.03
same,Standard assay statistics Ave RLU,[1]; [3],18.2 RLU
same,Standard assay statistics S:B,[1]; [3],48.3
same,Standard assay statistics S:N,[1]; [3],14.7
same,Standard assay statistics Z’,[1]; [3],0.775
same,"1 nM FLuc-C-NLuc Enz, Mean","[1]; Log [PTC124], M -4.48",0.85 RLU
same,"1 nM FLuc-C-NLuc Enz, Mean","[1]; Log [PTC124], M -4.96",0.8 RLU
same,"1 nM FLuc-C-NLuc Enz, Mean","[1]; Log [PTC124], M -5.44",1.3 RLU
same,"1 nM FLuc-C-NLuc Enz, Mean","[1]; Log [PTC124], M -5.91",1.6 RLU
same,"1 nM FLuc-C-NLuc Enz, Mean","[1]; Log [PTC124], M -6.39",2.8 RLU
same,"1 nM FLuc-C-NLuc Enz, Mean","[1]; Log [PTC124], M -6.87",5.9 RLU
same,"1 nM FLuc-C-NLuc Enz, Mean","[1]; Log [PTC124], M -7.35",11.8 RLU
same,"1 nM FLuc-C-NLuc Enz, Mean","[1]; Log [PTC124], M -7.82",27.4 RLU
same,"1 nM FLuc-C-NLuc Enz, Mean","[1]; Log [PTC124], M -8.30",69.9 RLU
same,"1 nM FLuc-C-NLuc Enz, Mean","[1]; Log [PTC124], M -8.78",146.5 RLU
same,"1 nM FLuc-C-NLuc Enz, Mean","[1]; Log [PTC124], M -9.25",188.2 RLU
same,"1 nM FLuc-C-NLuc Enz, Mean","[1]; Log [PTC124], M -9.73",384.3 RLU
same,"1 nM FLuc-C-NLuc Enz, Mean","[1]; Log [PTC124], M -10.21",641.6 RLU
same,"1 nM FLuc-C-NLuc Enz, Mean","[1]; Log [PTC124], M -10.69",817.0 RLU
same,"1 nM FLuc-C-NLuc Enz, Mean","[1]; Log [PTC124], M -11.16",872.5 RLU
same,"1 nM FLuc-C-NLuc Enz, Mean","[1]; Log [PTC124], M -11.64",882.4 RLU
COc1ccc(NC(=O)C2CCN(C(=O)c3ncn4c3COC(c3ccccc3)C4)CC2)cc1Cl (centres unmarked) [NCGC 00449919],"Thermofluor FLuc, No ATP",[2],0.994
CC(CNC(=O)C1CCN(C(=O)c2ncn3c2COC(c2ccccc2)C3)CC1)c1ccccc1 (centres unmarked) [compound 00449795],Enz,[1]; M -4.48,-89.10
same,Enz,[1]; M -4.96,-73.93
same,Enz,[1]; M -5.44,-56.58
same,Enz,[1]; M -5.91,-29.78
same,Enz,[1]; M -6.39,-11.92
same,Enz,[1]; M -6.87,-0.00581
same,Enz,[1]; M -7.35,4.23
same,Enz,[1]; M -7.82,7.74
same,Enz,[1]; M -8.30,6.20
same,Enz,[1]; M -8.78,3.71
same,Enz,[1]; M -9.25,4.09
CC(CNC(=O)C1CCN(C(=O)c2ncn3c2COC(c2ccccc2)C3)CC1)c1ccccc1 (centres unmarked) [NCGC 00449795],"Thermofluor FLuc, No ATP",[2],0.992
